In patent US12673955B2, “Crystal form of p-toluenesulfonate salt of diazabicyclic compound and preparation method therefor” (CRYSTAL PHARMATECH CO., LTD., priority 2020, dated 2026):

Key:
Assay type in all cases: physicochemical
[1] = Hygroscopicity study by dynamic vapor sorption (DVS)
Experimental: The dynamic vapor sorption diagrams of the present disclosure were collected on Intrinsic-type and Intrinsic Plus-type dynamic vapor sorption instruments of SMS company. The parameters of the dynamic vapor sorption test of the present disclosure were as follows: • Temperature: 25° C. • Protection gas and flow rate: N2, 200 m L/min • dm/dt: 0.002%/min • Minimum dm/dt equilibration time: 10 min • Maximum Equilibration Time: 180 min • Relative humidity range: 0% RH-95% RH-0% RH • Relative humidity gradient: 10% (0% RH-90% RH-0% RH), 5% (90% RH-95% RH and 95% RH-90% RH).
Dynamic vapor sorption (DVS) was applied to test hygroscopicity of tosylate Form A solid and solid in the prior art with about 10 mg of samples. XRPD patterns were collected.
Non-hygroscopic or almost non hygroscopic: increase in mass is less than 0.2 percent.

[2] = PSD test (laser particle size analyzer, wet method)
Experimental: The particle size distribution results of the present disclosure were collected on S3500-type laser particle size analyzer of the Microtrac company. The Microtrac S3500 was equipped with an SDC (Sample Delivery Controller) sampling system. The wet method was used in this test, using Isopar G (containing 0.2% lecithin) as the test dispersion medium. The process parameters of the laser particle size analyzer were as follows.
Approximately 10-30 mg of tosylate Form A solid was added into 10 mL of Isopar G (containing 0.2% lecithin). The mixture was mixed thoroughly and transferred into the SDC. The experiment was started when the obscuration is in appropriate range. The particle size distribution (PSD) was tested before and after 30 seconds of ultrasound.

[3] = Crystal habit by polarized light microscopy
Excerpt: The polarized light microscope photos of the present disclosure were taken at room temperature with a Zeiss microscope Axio Scope.A1 equipped with an Axiocam 305 color camera and 5×, 10×, 20× and 50× objective lenses.

[4] = Compressibility of crystalline form (manual tablet press, 350 MPa)
Experimental: A manual tablet press was used for tabletting. Appropriate amount of tosylate Form A and solid in the prior art were compressed by circle punches under 350 MPa pressure to form a tablet. Hardness (H) of the tablet was determined to be 18.36 N by a tablet hardness tester. Diameter (D) and thickness (L) of the tablet were determined to be 6 mm and 1.02 mm by a vernier caliper, respectively. The tensile strength of the tablets was calculated to be 1.9 MPa through the equation of T=2H/πDL.

[5] = Intrinsic dissolution of crystalline form; details: pH 6.8 phosphate buffer, 900 mL, 37° C., paddle, tablet surface 0.5 cm^2
Experimental: The intrinsic dissolution rate data of the present disclosure were collected on an Agilent 708DS-type dissolution apparatus of the Agilent company. The intrinsic dissolution test conditions were as follows.
Approximately 100 mg of tosylate Form A and the solid in the prior art were added into the cavity of the die, and then compressed at 5 KN and held for 1 minute to obtain a tablet having a surface area of 0.5 cm^2.

[6] = Adhesiveness propensity study (material sticking to the punch); details: 8 mm round tooling, 10 kN, 30 s
Experimental: Approximately 30 mg of tosylate Form A and the solid in the prior art were weighed and then added into the dies of 8 mm round tooling, compressed at 10 kN pressure and held for 30 s. The punch was weighed and amount of material sticking to the punch was calculated. The compression was repeated once and the cumulative amount, maximum amount and average amount of material sticking to the punch during the compression were recorded.

[7] = Solubility of crystalline form (saturated solutions measured by HPLC); details: for solubility at 1 h / solubility at 2 h / solubility at 4 h / solubility at 24 h: thermodynamic from solid
Experimental: Tosylate Form A and solid in the prior art were suspended into SGF, FaSSIF, FeSSIF and water to get saturated solutions. After equilibrated for 1 hour, 2 hours, 4 hours and 24 hours, concentrations of the saturated solutions were measured by HPLC.

[8] = Stability study of tosylate Form A (XRPD and chemical impurity after storage)
Experimental: Approximately 10 mg of tosylate Form A were stored under different conditions of 25° C./60% RH and 40° C./75% RH. XRPD and chemical impurity were checked at 1 week, 2 weeks, 4 weeks and 8 weeks.
Based on the above results, tosylate Form A kept stable for at least 8 weeks.

[9] = Isopar G containing 0.2% lecithin
[10] = 25° C./60% RH and 40° C./75% RH, up to 8 weeks

For `Cn1cc(Nc2nccc(N3C[C@H]4CC[C@@H](C3)N4C(=O)[C@@H]3CC3(F)F)n2)cn1` [tosylate Form A, ((1S)-2,2-difluorocyclo-propyl) ((1R,5S)-3-(2-((1-methyl-1H-pyrazol-4-yl)amino)pyrimidin-4-yl)-3,8-diazabicyclo[3.2.1]octan-8-yl)methanone], the “form change after DVS test (XRPD)” value ([1]; 0% RH-95% RH-0% RH, 25° C.) was “no obvious form change”, the hygroscopicity class ([1]; Chinese Pharmacopoeia 2015 definition, from DVS weight gain at 80% RH) was “slightly hygroscopic” and the “weight gain (DVS)” value ([1]; at 80% RH, 25° C.) was 0.35%. The “hygroscopicity compared with the prior art” value ([1]; versus solid in the prior art) was “relatively lower hygroscopicity”, the “change of particle size distribution after sonication” value ([2]; 30 seconds of ultrasound) was “no obvious change or agglomeration” and the “mean particle size (MV)” value [2, 9] was 400 μm. For the same compound, the “particle size distribution shape” value [2, 9] was “unimodal distribution”, the flowability ([3]; inferred from crystal habit) was “good flowability” and the crystal habit ([3]; polarized light microscopy) was “rod-like particles”. The compressibility ([4]; 350 MPa pressure) was “good compressibility”, the “tensile strength of the tablets” value ([4]; calculated by T=2H/πDL, tablet compressed under 350 MPa) was 1.9 MPa and the “Hardness (H) of the tablet” value ([4]; tablet compressed under 350 MPa, diameter 6 mm, thickness 1.02 mm) was 18.36 N. The “intrinsic dissolution rate compared with the solid in the prior art” value [5] was “higher dissolution rate than the solid in the prior art”, the “adhesiveness compared with the prior art solid” value [6] was “superior to the prior art solid” and the “solubility compared with solid in the prior art” value ([7]; SGF, FaSSIF, FeSSIF and water) was “higher than that of solid in the prior art”. It also gave a solubility at 1 h ([7]; simulated gastric fluid, SGF) of 5540 µg/mL, a solubility at 2 h ([7]; simulated gastric fluid, SGF) of 5990 µg/mL and a solubility at 4 h ([7]; simulated gastric fluid, SGF) of 5080 µg/mL. For the same compound, the solubility at 24 h ([7]; simulated gastric fluid, SGF) was 5690 µg/mL, the solubility at 1 h ([7]; FaSSIF) was 7120 µg/mL and the solubility at 2 h ([7]; FaSSIF) was 7310 µg/mL. It also gave a solubility at 4 h ([7]; FaSSIF) of 7300 µg/mL, a solubility at 24 h ([7]; FaSSIF) of 7540 µg/mL and a solubility at 1 h ([7]; FeSSIF) of 6770 µg/mL. The solubility at 2 h ([7]; FeSSIF) was 7030 µg/mL, the solubility at 4 h ([7]; FeSSIF) was 7340 µg/mL and the solubility at 24 h ([7]; FeSSIF) was 7780 µg/mL. The solubility at 1 h ([7]; water, H2O) was 5260 µg/mL, the solubility at 2 h ([7]; water, H2O) was 5340 µg/mL and the solubility at 4 h ([7]; water, H2O) was 5240 µg/mL. The solubility at 24 h ([7]; water, H2O) was 5560 µg/mL, the time kept stable ([8]; 25° C./60% RH and 40° C./75% RH) was “at least 8 weeks” and the “Crystalline state after storage” value [8, 10] was “doesn't change”. For the same compound, the “chemical purity after storage” value [8, 10] was “above 99%”, the Puriy ([8]; 25° C./60% RH, 1 week) was 99.92% and the Puriy ([8]; 25° C./60% RH, 2 weeks) was 100.0%. The Puriy ([8]; 25° C./60% RH, 4 weeks) was 99.89%, the Puriy ([8]; 25° C./60% RH, 8 weeks) was 99.92% and the Puriy ([8]; 40° C./75% RH, 1 week) was 99.90%. The Puriy ([8]; 40° C./75% RH, 2 weeks) was 99.91%, the Puriy ([8]; 40° C./75% RH, 4 weeks) was 99.90% and the Puriy ([8]; 40° C./75% RH, 8 weeks) was 99.91%.
